What all share (format): cell-based
For experiment [1], the system named is primary human fibroblasts derived from IPF patients (LL29 cells). The experiment in a line: Inhibition of fibrotic process: αSMA staining in TGF-β1-treated primary human fibroblasts from IPF patients (LL29 cells). The conditions noted are these: Fibroblast, 96 h, LL29 cells treated with TGF-β1 (20 ng/mL), 4 days, 11-point dose-response from 10 μM to 1.87 nM, read-out: Inhibition of fibrosis EC50. In short, it runs like this: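 LL29 IPF lung fibroblasts in F12 with 1% FBS, compound (11-point, 10 μM to 1.87 nM, 0.1% DMSO) plus TGF-β1 20 ng/mL for 4 days at 37° C. αSMA-positive % of SYTOX-negative cells by immunofluorescence imaging, normalized to TGF-β1 wells; EC50 from non-linear regression of triplicates.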

Experiment [2] deals with primary human mesenchymal stem cells (hMSCs). As to the kind of experiment: Chondrogenesis induction in primary human mesenchymal stem cells (nodule imaging, Rhodamine B/Nile Red). As to conditions: 144 h, 6 days, concentration required to induce chondrogenesis equivalent to TGF-β3 positive control, read-out: Conc (nM) of 100% TGF-β3 activity. As for the experimental part: The above synthesized compounds were screened using primary human mesenchymal stem cells (hMSCs) to determine their ability to induce chondrogenesis (process by which cartilage is developed).
Primary human mesenchymal stem cells (hMSCs) were purchased from Lonza (Walkersville, Md.) and expanded in Mesenchymal Stem Cell Growth Media (Lonza). Cells between passage 3 and 6 were used for the experiments.
Each compound was dissolved in DMSO as a 10 mM stock and used to prepare compound source plates. Serial dilution (1:3, 6-point dose-response curves from 2700 nM to 10 nM) and compound transfer was performed using the ECHO 550 (Labcyte, Sunnyvale, Calif.) into 96-well clear bottom assay plates (Greiner Bio-One) with appropriate DMSO backfill for a final DMSO concentration of 0.03%. hMSCs were plated at 20,000 cells/well in 250 μL/well Incomplete Chondrogenic Induction Medium (Lonza; DMEM, dexamethasone, ascorbate, insulin-transferrin-selenium [ITS supplement], gentamycin-amphotericin [GA-1000], sodium pyruvate, proline and L-glutamine). TGF-β3 (10 ng/mL) was used as a positive control for differentiation while negative control wells were treated with 75 nL DMSO for normalization and calculating EC50 values. Cells were incubated at 37° C. and 5% CO2 for 6 days. To image chondrogenic nodules, the cells were fixed using 4% formaldehyde (Electron Microscopy Sciences), and stained with 2 μg/mL Rhodamine B (Sigma-Aldrich) and 20 μM Nile Red (Sigma-Aldrich) [Johnson K., et. al, A Stem Cell-Based Approach to Cartilage Repair, Science, (2012), 336(6082), 717-721]. The nodules imaged (4 images per well at 4× magnification) by excitation at 531 nm and emission at 625 nm and quantified using the CellInsight CX5 (Thermo Scientific). Number of nodules in each well was normalized to the average of 3 DMSO treated wells on the same plate using Excel (Microsoft Inc.). The normalized averages (fold change over DMSO) of 3 replicate wells for each compound concentration were calculated. Due to solubility limitations of some of the compounds, curve fitting was incomplete leading to inaccurate EC50 determinations.
Using TGF-03 as a positive control, the concentration of test compounds required to induce equivalent levels of chondrogenesis is reported. In addition, the maximum activity of each compound and the respective dose that each compound reached maximum chondrogenesis activity is reported.

In experiment [3] the test system is Wnt activity (Wnt-responsive Sp5 promoter-luciferase reporter in SW480 cells). As to the kind of experiment: Wnt activity screening assay: Sp5-Luc reporter gene in SW480 colon carcinoma cells. As to conditions: Homo sapiens. Put shortly:
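IC50 values come from variable-slope four-parameter fits of luciferase signal normalized to DMSO wells. Stable Sp5-Luc reporter SW480 colon carcinoma cells were exposed to compounds in a 3-fold dilution series (source plates from 10 mM stock) for forty-two hours at 37 °C.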

Each structure is given as a SMILES string.

Take `CC(C)(C)C(=O)Nc1cncc(-c2cc3c(-c4nc5c(-c6ccc(F)s6)cncc5[nH]4)n[nH]c3cn2)c1` [Compound 320, N-(5-(3-(7-(5-Fluorothiophen-2-yl)-3H-imidazo[4,5-c]pyridin-2-yl)-1H-pyrazolo[3,4-c]pyridin-5-yl)pyridin-3-yl)pivalamide]: in experiment [1], the EC50 worked out at 0.103 µM. The EC (100% TGF-beta3 activity) in experiment [2] is 41 nM. The molecule also displayed an IC50 in experiment [3] of 0.0037 µM.
In the case of `CCNCc1cncc(-c2cc3c(-c4nc5c(-c6ccc(F)cc6)cncc5[nH]4)n[nH]c3cn2)c1` [Compound 32, N-((5-(3-(7-(4-Fluorophenyl)-3H-imidazo[4,5-c]pyridin-2-yl)-1H-pyrazolo[3,4-c]pyridin-5-yl)pyridin-3-yl)methyl)ethanamine], in experiment [1], the 50% effective concentration (EC50) was at most 0.009 µM. Besides, the EC (100% TGF-beta3 activity) in experiment [2] came out at 110 nM. In addition, the half-maximal inhibitory concentration (IC50) in experiment [3] was 0.0143 µM.
`O=C(Nc1cncc(-c2cc3c(-c4nc5c(-c6ccc(F)s6)cncc5[nH]4)n[nH]c3cn2)c1)C1CCC1` [Compound 332, N-(5-(3-(7-(5-Fluorothiophen-2-yl)-3H-imidazo[4,5-c]pyridin-2-yl)-1H-pyrazolo[3,4-c]pyridin-5-yl)pyridin-3-yl)cyclobutanecarboxamide]: the 50% effective concentration (EC50) in experiment [1] was 1.05 µM. Further, the IC50 in experiment [3] worked out at 0.0328 µM.
On the same counts, the results for `Fc1ccc(-c2cncc3[nH]c(-c4n[nH]c5cnc(-c6cncnc6)cc45)nc23)cc1` [Compound 52, 3-(7-(4-Fluorophenyl)-3H-imidazo[4,5-c]pyridin-2-yl)-5-(pyrimidin-5-yl)-1H-pyrazolo[3,4-c]pyridine] are 1.2 µM and 0.179 µM.
For the molecule `CS(=O)(=O)NCc1cc(F)cc(-c2cncc3[nH]c(-c4n[nH]c5cnc(-c6cncnc6)cc45)nc23)c1` [Compound 416, N-(3-Fluoro-5-(2-(5-(pyrimidin-5-yl)-1H-pyrazolo[3,4-c]pyridin-3-yl)-3H-imidazo[4,5-c]pyridin-7-yl)benzyl)methanesulfonamide], the EC50 in experiment [1] is at least 9.99 µM. In experiment [3], this molecule had a concentration for half-maximal inhibition (IC50) of over 10 µM.
On the same counts, the results for `CCCCC(=O)Nc1cncc(-c2cc3c(-c4nc5c(-c6ccccn6)cncc5[nH]4)n[nH]c3cn2)c1` [Compound 148, N-(5-(3-(7-(Pyridin-2-yl)-3H-imidazo[4,5-c]pyridin-2-yl)-1H-pyrazolo[3,4-c]pyridin-5-yl)pyridin-3-yl)pentanamide] are at least 9.99 µM and over 10 µM.
On the same counts, the results for `CCCCC(=O)Nc1cncc(-c2cc3c(-c4nc5c(-c6ccc(C)s6)cncc5[nH]4)n[nH]c3cn2)c1` [Compound 356, N-(5-(3-(7-(5-Methylthiophen-2-yl)-3H-imidazo[4,5-c]pyridin-2-yl)-1H-pyrazolo[3,4-c]pyridin-5-yl)pyridin-3-yl)pentanamide] are 0.11 µM and 0.0176 µM.
For the molecule `c1ccc(CNCc2cncc(-c3cc4c(-c5nc6c(-c7ccsc7)cncc6[nH]5)n[nH]c4cn3)c2)cc1` [Compound 257, N-Benzyl-1-(5-(3-(7-(thiophen-3-yl)-3H-imidazo[4,5-c]pyridin-2-yl)-1H-pyrazolo[3,4-c]pyridin-5-yl)pyridin-3-yl)methanamine], the half-maximal effective concentration (EC50) in experiment [1] was 2.63 µM. Moreover, in experiment [3], the half-inhibitory concentration (IC50) worked out at 0.653 µM.
As for `CCCCC(=O)Nc1cncc(-c2cc3c(-c4nc5c(-c6ccc(F)cc6)cncc5[nH]4)n[nH]c3cn2)c1` [Compound 44, N-(5-(3-(7-(4-Fluorophenyl)-3H-imidazo[4,5-c]pyridin-2-yl)-1H-pyrazolo[3,4-c]pyridin-5-yl)pyridin-3-yl)pentanamide], the EC50 in experiment [1] turned out to be 0.075 µM. Also, the half-inhibitory concentration (IC50) in experiment [3] is 0.165 µM.
Take `CS(=O)(=O)NCc1cc(F)cc(-c2cncc3[nH]c(-c4n[nH]c5cnc(-c6cncc(NC(=O)C7CCC7)c6)cc45)nc23)c1` [Compound 410, N-(5-(3-(7-(3-Fluoro-5-(methylsulfonamidomethyl)phenyl)-3H-imidazo[4,5-c]pyridin-2-yl)-1H-pyrazolo[3,4-c]pyridin-5-yl)pyridin-3-yl)cyclobutanecarboxamide]: in experiment [1], the half-maximal effective concentration (EC50) was 0.475 µM. Also, the IC50 in experiment [3] was 0.0296 µM.
In the case of `CCNCc1cncc(-c2cc3c(-c4nc5c(-c6ccccn6)cncc5[nH]4)n[nH]c3cn2)c1` [Compound 136, N-((5-(3-(7-(Pyridin-2-yl)-3H-imidazo[4,5-c]pyridin-2-yl)-1H-pyrazolo[3,4-c]pyridin-5-yl)pyridin-3-yl)methyl)ethanamine], in experiment [1], the EC50 is 0.598 µM. In experiment [3], this molecule registered an IC50 of 0.562 µM.
With `CCCC(=O)Nc1cncc(-c2cc3c(-c4nc5c(-c6ccncc6)cncc5[nH]4)n[nH]c3cn2)c1` [Compound 121, N-(5-(3-(7-(Pyridin-4-yl)-3H-imidazo[4,5-c]pyridin-2-yl)-1H-pyrazolo[3,4-c]pyridin-5-yl)pyridin-3-yl)butyramide], the concentration giving a half-maximal response (EC50) in experiment [1] was at least 9.99 µM. The molecule also displayed a half-inhibitory concentration (IC50) in experiment [3] of over 10 µM.
`CN(C)CCNc1cc(F)cc(-c2cncc3[nH]c(-c4n[nH]c5cnc(-c6cncc(CNCC7CCCC7)c6)cc45)nc23)c1` [Compound 440, N^1-(3-(2-(5-(5-(((Cyclopentylmethyl)amino)methyl)pyridin-3-yl)-1H-pyrazolo[3,4-c]pyridin-3-yl)-3H-imidazo[4,5-c]pyridin-7-yl)-5-fluorophenyl)-N2,N2-dimethylethane-1,2-diamine]: the half-maximal effective concentration (EC50) in experiment [1] is at most 0.009 µM. In experiment [3], the IC50 was found to be 1.21 µM.
As for `CN(C)c1cncc(-c2cc3c(-c4nc5c(-c6cccs6)cncc5[nH]4)n[nH]c3cn2)c1` [Compound 293, N,N-Dimethyl-5-(3-(7-(thiophen-2-yl)-3H-imidazo[4,5-c]pyridin-2-yl)-1H-pyrazolo[3,4-c]pyridin-5-yl)pyridin-3-amine], the EC50 in experiment [1] was at most 0.009 µM. This molecule also had a half-inhibitory concentration (IC50) in experiment [3] of 0.319 µM.
As for `CCNCc1cncc(-c2cc3c(-c4nc5c(-c6ccccc6F)cncc5[nH]4)n[nH]c3cn2)c1` [Compound 58, N-((5-(3-(7-(2-Fluorophenyl)-3H-imidazo[4,5-c]pyridin-2-yl)-1H-pyrazolo[3,4-c]pyridin-5-yl)pyridin-3-yl)methyl)ethanamine], the EC50 in experiment [1] came out at 0.041 µM. For the same molecule, 0.0402 µM corresponded to half-maximal inhibition in experiment [3] (IC50).
For the molecule `CCCC(=O)Nc1cncc(-c2cc3c(-c4nc5c(-c6ccc(F)cc6)cncc5[nH]4)n[nH]c3cn2)c1` [Compound 43, N-(5-(3-(7-(4-Fluorophenyl)-3H-imidazo[4,5-c]pyridin-2-yl)-1H-pyrazolo[3,4-c]pyridin-5-yl)pyridin-3-yl)butyramide], the 50% effective concentration (EC50) in experiment [1] was 0.076 µM. The molecule also registered a half-inhibitory concentration (IC50) in experiment [3] of 0.0767 µM.
On the same counts, the results for `Cc1ccncc1-c1cc2c(-c3nc4c(-c5cc(F)cc(CNS(C)(=O)=O)c5)cncc4[nH]3)n[nH]c2cn1` [Compound 395, N-(3-Fluoro-5-(2-(5-(4-methylpyridin-3-yl)-1H-pyrazolo[3,4-c]pyridin-3-yl)-3H-imidazo[4,5-c]pyridin-7-yl)benzyl)methanesulfonamide] are at most 0.009 µM and 0.0467 µM.
In the case of `CN1CCN(c2cncc3[nH]c(-c4n[nH]c5cnc(-c6cncc(CN7CCCCC7)c6)cc45)nc23)CC1` [Compound 223, 3-(7-(4-Methylpiperazin-1-yl)-3H-imidazo[4,5-c]pyridin-2-yl)-5-(5-(piperidin-1-ylmethyl)pyridin-3-yl)-1H-pyrazolo[3,4-c]pyridine], the half-maximal effective concentration (EC50) in experiment [1] is at least 9.99 µM. The molecule further yielded a 50% inhibitory concentration (IC50) in experiment [3] of 1.39 µM.
Take `Fc1ccc(-c2cncc3[nH]c(-c4n[nH]c5cnc(-c6cncc(CN7CCCC7)c6)cc45)nc23)s1` [Compound 326, 3-(7-(5-Fluorothiophen-2-yl)-3H-imidazo[4,5-c]pyridin-2-yl)-5-(5-(pyrrolidin-1-ylmethyl)pyridin-3-yl)-1H-pyrazolo[3,4-c]pyridine]: the EC50 in experiment [1] was at most 0.009 µM. In experiment [3], the IC50 stood at 0.772 µM.

The term EC50 denotes the midpoint of the concentration-response curve. As usually defined, the IC50 is the concentration that inhibits the measured activity by half. High values mean a need for much substance, low ones inhibition by little substance.

For the origin of these results see patent US10052331B2, “3-(3H-imidazo[4,5-C]pyridin-2-yl)-1H-pyrazolo[3,4-C]pyridine and therapeutic uses thereof” (Samumed, LLC, priority 2014, dated 2018).
